Test results as given in US12228580B2, “Methods of assigning a COVID pathological type based on a cytokine/chemokine panel” (IncellDx, Inc., priority 2020, dated 2025).

Tests used:
[1] = system: plasma cytokines/chemokines of Chronic COVID patients; test: 14-plex cytokine/chemokine panel in plasma and long hauler index (S1) of treated Chronic COVID patients; format: in vivo, human; settings: 300 mg twice a day for 2 weeks; for S1 (long haul index, LHI; (IFN-gamma+IL-2)/CCL4-MIP-1β): Normals 0.1
Text: Fresh plasma was used for cytokine quantification using a customized 14-plex bead based flow cytometric assay (IncelIKINE, IncellDx, Inc) on a CytoFlex flow cytometer as previously described using the following analytes: ‘TNF-α’, ‘IL-4’, ‘IL-13’, ‘IL-2’, ‘GM-CSF’, ‘sCD40L’, ‘CCL5 (RANTES)’, ‘CCL3 (MIP-1α)’, ‘IL-6’, ‘IL-10’, ‘IFN-γ’, ‘VEGF’, ‘IL-8’, and ‘CCL4 (MIP-1β) (Patterson et al., “CCR5 inhibition in Critical COVID-19 Patients Decreases Inflammatory Cytokines, Increases CD8 T-Cells, and Decreases SARS-CoV2 RNA in Plasma by Day 14”, Int J Infect Dis (2020) doi: 10.1016/j.ijid.2020.10.101). For each patient sample, 25 μL of plasma was used in each well of a 96-well plate. Standard curves with serial 6-point dilutions of antigen were run on each plate for each cytokine. Raw data was analyzed using LegendPlex software (Biolegend, Inc San Diego Calif.). Samples were run in duplicate.
(§1) Long Hauler patients suffering from chronic COVID-19 were treated for 2 weeks with 300 mg of Maraviroc (SELZENTRY®) twice a day. […] The results are provided below, which provide patient profiles and LHI (long haul index) as determined using the panel described in the preceding example. LHI is also referred to as “Long Hauler Score” or S1, where S1=(IFN-gamma+IL-2)/CCL4-MIP-1β.

[2] = system: Long Hauler patients suffering from chronic COVID-19; test: Treatment of Long Hauler patients for chronic COVID-19: symptoms; format: in vivo, human; settings: 300 mg twice a day for 2 weeks
Procedure: as §1

In the case of Maraviroc, the “CCL5/RANTES in Chronic COVID patients successfully treated” value ([1]; Chronic COVID patients) is reported as “Decreased CCL5/RANTES in Chronic COVID patients successfully treated”, the “long hauler Indices (LHI, S1)” value ([1]; Long Hauler patients) is reported as “reduced” and the “S1 (long haul index, LHI; (IFN-gamma+IL-2)/CCL4-MIP-1β)” value ([1]; patient two, second sample (AB2), first sample AB1 4.0) is reported as 0.3. For the same substance, the GM-CSF ([1]; patient two, second sample (AB2), first sample AB1 6.02) was 15.09 pg/mL, the TNF-α ([1]; patient two, second sample (AB2), first sample AB1 7.75) was 17.13 pg/mL and the IL-10 ([1]; patient two, second sample (AB2), first sample AB1 7.90) was less than 0.61 pg/mL. For the same substance, the IL-6 ([1]; patient two, second sample (AB2), first sample AB1 10.88) was less than 0.6 pg/mL, the IL-4 ([1]; patient two, second sample (AB2), first sample AB1 11.06) was 4.12 pg/mL and the IL-2 ([1]; patient two, second sample (AB2), first sample AB1 12.57) was 2.15 pg/mL. For the same substance, the “CCL4 (MIP-1β)” value ([1]; patient two, second sample (AB2), first sample AB1 15.52) was 8.43 pg/mL, the IFN-γ ([1]; patient two, second sample (AB2), first sample AB1 48.78) was less than 0.92 pg/mL and the VEGF ([1]; patient two, second sample (AB2), first sample AB1 60.41) was 22.98 pg/mL. For the same substance, the “CCL3 (MIP-1α)” value ([1]; patient two, second sample (AB2), first sample AB1 87.65) was less than 1.22 pg/mL, the “CCL5 (RANTES)” value ([1]; patient two, second sample (AB2), first sample AB1 13082.39) was 12261.36 pg/mL and the sCD40L ([1]; patient two, second sample (AB2), first sample AB1 13488.) was 12631. pg/ml. For the same substance, the IL-13 ([1]; patient two, second sample (AB2), first sample AB1 <3.07) was 4.35 pg/mL, the IL-8 ([1]; patient two, second sample (AB2), first sample AB1 <15.74) was 18.37 pg/mL and the “CCL4 (MIP-1β)” value ([1]; unlabelled patient, second line, first line 3.62) was 9.79 pg/mL. For the same substance, the IL-13 ([1]; unlabelled patient, second line, first line 5.56) was 4.22 pg/mL, the GM-CSF ([1]; unlabelled patient, second line, first line 10.40) was 9.07 pg/mL and the “S1 (long haul index, LHI; (IFN-gamma+IL-2)/CCL4-MIP-1β)” value ([1]; unlabelled patient, second line, first line 11.4) was 1.3. It also gave a TNF-α ([1]; unlabelled patient, second line, first line 17.86) of 17.50 pg/mL, an IL-2 ([1]; unlabelled patient, second line, first line 33.94) of 4.89 pg/mL and a VEGF ([1]; unlabelled patient, second line, first line 39.00) of 31.62 pg/mL. The sCD40L ([1]; unlabelled patient, second line, first line 8980.) was 41374. pg/ml, the “CCL5 (RANTES)” value ([1]; unlabelled patient, second line, first line 14334.86) was 10011.91 pg/mL and the IL-10 ([1]; unlabelled patient, second line, first line <1.20) was less than 2.49 pg/mL. The IL-8 ([1]; unlabelled patient, second line, first line <3.82) was less than 9.98 pg/mL, the IL-6 ([1]; unlabelled patient, second line, first line <4.66) was less than 3.60 pg/mL and the IL-4 ([1]; unlabelled patient, second line, first line <5.02) was less than 1.22 pg/mL. For the same substance, the IFN-γ ([1]; unlabelled patient, second line, first line <7.30) was less than 7.77 pg/mL, the “CCL3 (MIP-1α)” value ([1]; unlabelled patient, second line, first line <34.82) was less than 45.08 pg/mL and the “symptoms in long haulers” value [2] was “alleviated or completely resolved symptoms”.
